Measurements: patent publication US5547935A (Chiron Corporation, priority 1994, dated 1996)
Values belong to the substance of their own block, whether it stands above or below them.

How the values were obtained:
[1] = forms isolated from recombinant yeast culture; cited from earlier work
[2] = stored as a lyophilized powder; cited from earlier work
[3] = system: Human foreskin fibroblasts; test: Mitogenicity: 3H-thymidine incorporation; assay type: cell-based
Protocol: Mitogenicity was assayed substantially following the method described by D. J. Knauer et al, J Biol Chem (1984) 259:5623-31.
Human foreskin fibroblasts were obtained and frozen at the thirteenth passage. Thawed cells are trypsinized, pelleted, and resuspended in a medium containing DMEM, 5% FBS, 1 mM sodium pyruvate, 300 μg/mL L-glutamine, 100 U/mL penicillin, and 100 μg/mL streptomycin. The cells are counted using a hemocytometer and 0.4% trypan blue. The cell concentration is adjusted to 1×10^-5 cells/mL using the same medium, and dispensed onto microtiter plates (100 μL/well). The plates are incubated for 5 days in a tissue culture incubator.
EGF muteins prepared in Example 1 and native sequence EGF are dissolved to make 100 μg/mL solutions. These solutions are used to make serial dilutions of 20, 10, 5, 2.5, 1.25, 0.625, 0.3125, 0.15625, 0.078125, 0.0390625, 0.0195, and 0.00975 ng/mL. Ten μL of each dilution is added to a microtiter plate well, and the plates returned to the incubator and incubated at 37° C. for 18 hours. The cells are then pulsed with ^3 H-thymidine (^3 H-T), by adding 10 μL of ^3 H-T (100 μCi/mL) to each well, and incubating for 24 hours. The ^3 H-T is then expelled, and the plates rinsed twice with PBS. To fix the cells, the plates are then incubated twice with 5% trichloroacetic acid (TCA) for 15 minutes at room temperature, followed by incubation twice with 100% MeOH. The plates are then air-dried.
The well contents are then solubilized using 0.3 N NaOH (50 μL/well) for 30 minutes, and transferred to scintillation vials. Scintillation fluid (Ready-Solv EP, 4 mL) is then added to each vial, and the vials counted for 1 min with a 0-1,000 (^3 H) window in a Beckman LS3801 counter.

[4] = EGF biological activity, test not specified
Description: C. […] EGF-D represents the 52-amino acid sequence obtained by removing the C-terminal arg, while EGF-B corresponds to EGF-D wherein the C-terminal arg-leu has been removed. EGF-C appears to be EGF-D in which Met21 has been oxidized, while EGF-A appears to be EGF-B with Met21 oxidized. EGF-D is reported to be stable when stored as a lyophilized powder.
EGF may also be altered by adding an N-terminal extension. EGF-flag (.phi.EGF) derivatives have the additional sequence […], which permits rapid purification of peptides by affinity chromatography on anti-flag MAb columns (International Biotechnology Inc.).

[5] = target: T1, EGF receptor on fixed A431 cells (Homo sapiens, UniProt P00533); test: Receptor affinity: binding to fixed A431 cells; details: 1 nM, 2 hr at 37° C.
T1 construct: Confluent A43 1 cells were fixed in 96-well microtiter plates using 0.05% formaldehyde; endogenous in cells; host or cells: A431 cells, formaldehyde-fixed
Protocol: Confluent A43 1 cells were fixed in 96-well microtiter plates using 0.05% formaldehyde for 10 min at room temperature, then washed 3× with 200 μL PBS with 0.1% bovine serum albumin (BSA).
The wells were then washed 3× with 200 μL of PBS/0.1% BSA, detached, and counted in a gamma counter.

Substance: EGF-B: EGF-D wherein the C-terminal arg-leu has been removed (NSDSECPLSHDGYCLHDGVCMYIEALDKYACNCVVGYIGERCQYRDLKWWE; not fully specified; Epidermal growth factor; UniProt P01133 971-1021, looked up, fragment)
EGF activity [1]: full EGF activity

Substance: EGF-D: 52-amino acid sequence obtained by removing the C-terminal arg of EGF (NSDSECPLSHDGYCLHDGVCMYIEALDKYACNCVVGYIGERCQYRDLKWWEL; not fully specified; Epidermal growth factor; UniProt P01133 971-1022, looked up, fragment)
EGF activity [1]: full EGF activity
stability on storage [2]: stable

Substance: EGF-A43: EGF mutein with Ala at position 43 (Glu43 replaced)
Mitogenicity [3]: 63 percentage of control (EGF)

Affinity [5]: 73 percentage of control (EGF)
Substance: .phi.EGF-W13: flag-extended EGF mutein with Trp for Tyr13 (NSDSECPLSHDGWCLHDGVCMYIEALDKYACNCVVGYIGERCQYRDLKWWELR; not fully specified; Epidermal growth factor N-terminal FLAG extension; UniProt P01133 971-1023, looked up, variant Y13W)
Mitogenicity [3]: 216 percentage of control (EGF)
biological activity of EGF-flag derivatives [4]: biologically active

Substance: EGF-A41: EGF mutein with Ala at position 41
Mitogenicity [3]: < 0.4 percentage of control (EGF)

Substance: .phi.EGF-E12: flag-extended EGF mutein with Glu for Gly12 (NSDSECPLSHDEYCLHDGVCMYIEALDKYACNCVVGYIGERCQYRDLKWWELR; not fully specified; Epidermal growth factor N-terminal FLAG extension; UniProt P01133 971-1023, looked up, variant G12E)
biological activity of EGF-flag derivatives [4]: biologically active

Affinity [5]: 154 percentage of control (EGF)
Substance: .phi.EGF-Q12: flag-extended EGF mutein with Gln at position 12 (NSDSECPLSHDQYCLHDGVCMYIEALDKYACNCVVGYIGERCQYRDLKWWELR; not fully specified; Epidermal growth factor N-terminal FLAG extension; UniProt P01133 971-1023, looked up, variant G12Q)
Mitogenicity [3]: 286 percentage of control (EGF)

Substance: EFG: wild-type human epidermal growth factor, 53-amino acid protein; control of Table 1 [reference compound]
Mitogenicity [3]: 100 percentage of control (EGF)

Substance: EGF-A15: EGF mutein with Ala at position 15
Mitogenicity [3]: 3 percentage of control (EGF)
